# Measured values: patent US11028066B2, “Inhibitors of lysine specific demethylase-1” (CELGENE QUANTICEL RESEARCH, INC., priority 2014, dated 2021)
# How the values were obtained:
# full-length human LSD1 = full-length human LSD1 (Homo sapiens (Human), UniProt O60341); test: In vitro enzyme inhibition assay LSD-1 (TR-FRET); format: biochemical; settings: H3K4me1-biotin peptide
# How it was run: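 Demethylase activity of full-length human LSD1 was detected by TR-FRET after 1 hour incubation at room temperature. Excitation was at 320 nm, with emission at 615 nm and 665 nm. IC50 values were derived from the inhibition data.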
# Kasumi-1 = Kasumi-1 AML cell line proliferation assay (Cell-MTS assay); format: cell-based; settings: Homo sapiens, 168 hours incubation
# From the text: Colorimetric cellular assay to assess the ability of LSD-1 small molecule inhibitors to effect the proliferation of the established AML cancer cell line Kasumi-1.
# This Cell-MTS assay is a 7-day plate based colorimetric assay which quantifies the amount of newly generated NADH in the presence and absence of test compound. These NADH levels are used as a proxy for the quantification of cancer cell proliferation.
# The established cancer cell line Kasumi-1 with a verified p53 mutation were purchased from American Type Culture Collection (ATCC) and routinely passaged according to ATCC published protocols. For routine assay these cells were seeded at a density of 20,000 cells per 96-well. 24 hours after plating, cells received an 11 point dilution of test compound with final concentration ranges from 100 μM to 2.0 nM. Cells are incubated in the presence of compound for 168 hours at 37° C., 5% CO2. At the end of this compound incubation period, 80 μl of media is removed and 20 μL of CellTiter 96® AQueous Non-Radioactive Cell Proliferation Assay solution (Promega) is added. The cells are incubated until the OD490 is >0.6. IC50 values are calculated using the IDBS XLfit software package and include background subtracted OD490 values and normalization to DMSO controls.
# Table 5 provides the Kasumi-1 cellular IC50 values of various substituted heterocyclic compounds disclosed herein.
# THP-1 (AML) cells = test: LSD1 CD11b cellular assay (flow cytometry); format: cell-based; settings: Homo sapiens, THP-1, 96 h; CD11b expressing cells, 4 days incubation
Compound,IC50 (full-length human LSD1) [nM],IC50 (Kasumi-1) [nM],IC50 (THP-1 (AML) cells) [nM]
"Cn1c(-c2ccc(C3CC3)cc2)c(-c2ccc(C#N)cc2)nc(N2CCC(N)CC2)c1=O [Example 33, 4-[6-(4-aminopiperidin-1-yl)-3-(4-cyclopropylphenyl)-4-methyl-5-oxo-4,5-dihydropyrazin-2-yl]benzonitrile]",< 100,≤ 100,< 100
"COCCn1c(-c2ccc(C)cc2)c(-c2ccc(C#N)cc2)nc(N2CCC(N)CC2)c1=O [Example 36, 4-[6-(4-amino-piperidin-1-yl)-4-(2-methoxy-ethyl)-5-oxo-3-p-tolyl-4,5-dihydro-pyrazin-2-yl]-benzonitrile]",< 100,≤ 100,< 100
"Cc1ccc(-c2c(-c3ccc(C#N)cc3)nc(N3CCC(N)CC3)c(=O)n2CCCO)cc1 [Example 40, 4-[6-(4-amino-piperidin-1-yl)-4-(3-hydroxy-propyl)-5-oxo-3-p-tolyl-4,5-dihydro-pyrazin-2-yl]-benzonitrile]",< 100,≤ 100,< 100
"Cc1ccc(-c2c(-c3ccc(C#N)c(F)c3)nc(N3CCC(N)CC3)c(=O)n2CCO)cc1 [Example 42, 4-[6-(4-amino-piperidin-1-yl)-4-(2-hydroxy-ethyl)-5-oxo-3-p-tolyl-4,5-dihydro-pyrazin-2-yl]-2-fluoro-benzonitrile]",< 100,≤ 100,< 100
"Cc1ccc(-c2c(-c3ccc(C#N)c(F)c3)nc(NC[C@H]3CCNC3)c(=O)n2CCO)cc1 [Example 44, 4-(6-{[((3S)-pyrrolidin-3-yl)methyl]amino}-4-(2-hydroxyethyl)-3-(4-methylphenyl)-5-oxo(4-hydropyrazin-2-yl))-2-fluorobenzenecarbonitrile]",< 100,≤ 100,< 100
"Cc1ccc(-c2c(-c3ccc(C#N)c(F)c3)nc(N3CCC(N)CC3)c(=O)n2CCCO)cc1 [Example 46, 4-[6-(4-aminopiperidyl)-4-(3-hydroxypropyl)-3-(4-methylphenyl)-5-oxo(4-hydropyrazin-2-yl)]-2-fluorobenzenecarbonitrile]",< 100,≤ 100,< 100
"COc1ccc(-c2c(-c3ccc(C#N)c(F)c3)nc(NC[C@H]3CCNC3)c(=O)n2C)cc1 [Example 55, 2-fluoro-4-{3-(4-methoxy-phenyl)-4-methyl-5-oxo-6-[((3S)-pyrrolidin-3-ylmethyl)-amino]-4,5-dihydro-pyrazin-2-yl}-benzonitrile]",< 100,≤ 100,< 100
"Cn1c(-c2ccc3c(c2)ncn3C)c(-c2ccc(C#N)c(F)c2)nc(N2CCC(N)CC2)c1=O [Example 60, 4-[6-(4-amino-piperidin-1-yl)-4-methyl-3-(1-methyl-1H-benzoimidazol-5-yl)-5-oxo-4,5-dihydro-pyrazin-2-yl]-2-fluoro-benzonitrile]",< 100,≤ 100,< 100
"Cc1ccc(-c2c(-c3ccc(C#N)c(F)c3)nc(N3CCC(N)CC3)c(=O)n2C)cn1 [Example 66, 4-[6-(4-Amino-piperidin-1-yl)-4-methyl-3-(6-methyl-pyridin-3-yl)-5-oxo-4,5-dihydro-pyrazin-2-yl]-2-fluoro-benzonitrile]",< 100,≤ 100,< 100
"COc1ccc(-c2c(-c3ccc(C#N)c(F)c3)cc(NC[C@H]3CCNC3)c(=O)n2C)cc1 [Example 70, (S)-2-fluoro-4-(2-(4-methoxyphenyl)-1-methyl-6-oxo-5-(pyrrolidin-3-ylmethylamino)-1,6-dihydropyridin-3-yl)benzonitrile]",< 100,≤ 100,< 100
"Cn1c(-c2ccc(C3CC3)cc2)c(-c2ccc(C#N)c(F)c2)cc(NC[C@H]2CCNC2)c1=O [Example 74, (S)-4-(2-(4-cyclopropylphenyl)-1-methyl-6-oxo-5-(pyrrolidin-3-ylmethylamino)-1,6-dihydropyridin-3-yl)-2-fluorobenzonitrile]",< 100,≤ 100,< 100
"Cc1ccc(-c2c(-c3ccc(C#N)cc3)cc(N3CCC(N)CC3)c(=O)n2C)cc1 [Example 75, 4-[5-(4-aminopiperidin-1-yl)-1-methyl-2-(4-methylphenyl)-6-oxopyridin-3-yl]benzonitrile]",< 100,≤ 100,< 100
"Cc1ccc(-c2c(-c3ccc(C#N)c(F)c3)cc(N3CCC(N)CC3)c(=O)n2C)cc1 [Example 76, 4-[5-(4-aminopiperidin-1-yl)-1-methyl-2-(4-methylphenyl)-6-oxopyridin-3-yl]-2-fluorobenzonitrile]",< 100,≤ 100,< 100
"COc1ccc(-c2c(-c3ccc(C#N)cc3)cc(N3CCC(N)CC3)c(=O)n2C)cc1 [Example 77, 4-[5-(4-aminopiperidin-1-yl)-2-(4-methoxyphenyl)-1-methyl-6-oxopyridin-3-yl]benzonitrile]",< 100,≤ 100,< 100
"COc1ccc(-c2c(-c3ccc(C#N)cc3)cc(N3CCC(N)CC3)c(=O)n2C)cc1F [Example 83, 4-[5-(4-aminopiperidin-1-yl)-2-(3-fluoro-4-methoxyphenyl)-1-methyl-6-oxopyridin-3-yl]benzonitrile]",< 100,≤ 100,< 100
"COc1ccc(-c2c(-c3ccc(C#N)c(F)c3)cc(N3CCC(N)CC3)c(=O)n2C)cc1F [Example 84, 4-[5-(4-aminopiperidin-1-yl)-2-(3-fluoro-4-methoxyphenyl)-1-methyl-6-oxopyridin-3-yl]-2-fluorobenzonitrile]",< 100,≤ 100,< 100
"CN(C)c1ccc(-c2c(-c3ccc(C#N)c(F)c3)cc(N3CCC(N)CC3)c(=O)n2C)cn1 [Example 91, 4-{5-(4-aminopiperidyl)-2-[6-(dimethylamino)(3-pyridyl)]-1-methyl-6-oxo(3-hydropyridyl)}-2-fluorobenzenecarbonitrile]",< 100,≤ 100,< 100
